For this experiment, the target named is T1, FLAG-p7 (HCV p7, genotype 1b) (Hepatitis C virus isolate HC-J4, UniProt O92972).
T1 sequence (O92972 747-809 limits assumed): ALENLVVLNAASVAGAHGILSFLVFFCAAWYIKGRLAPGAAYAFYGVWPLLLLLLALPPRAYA
Briefly: carboxyfluorescein release from liposomes, fluorimetry, initial rates. Format: biochemical.

The term IC50 denotes the concentration at which inhibition is half-maximal. A high value points to weaker potency.

On to `NC12CC3CC(CC(C3)C1)C2` [amantadine], for which the IC50 is approximately 2 µM.

(Values after publication PMC7615709 (Antiviral research, 2007).)
